Experimental data published in ChEMBL document CHEMBL1201862, “PubChem BioAssay data set” (2004).
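In this assay, cells in 96-well plates receive the compound at five concentrations for 48 hours. Endpoints are linearly interpolated between the surrounding concentrations. At the GI50, growth is halved.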 Calls of active or inactive are those of the source. Cut-off read from the data, not from the text of the source: active = GI50 up to about 1.1 µM and inactive = higher.

Legend:
Assay in all cases: NCI tumour cell line growth inhibition, 48 h
786-0 = system: 786-0
A498 = system: A498
A549 = system: A549
ACHN = system: ACHN
BT-549 = system: BT-549
CAKI-1 = system: CAKI-1
COLO 205 = system: COLO 205
DU-145 = system: DU-145
EKVX = system: EKVX
HCC 2998 = system: HCC 2998
HCT-116 = system: HCT-116
HCT-15 = system: HCT-15
HOP-62 = system: HOP-62
HOP-92 = system: HOP-92
HT-29 = system: HT-29
Hs-578T = system: Hs-578T
IGROV-1 = system: IGROV-1
K562 = system: K562
KM12 = system: KM12
LOX IMVI = system: LOX IMVI
M14 = system: M14
MCF7 = system: MCF7
MDA-MB-231 = system: MDA-MB-231
MDA-MB-435 = system: MDA-MB-435
MDA-N = system: MDA-N
MOLT-4 = system: MOLT-4
Malme-3M = system: Malme-3M
NCI-H226 = system: NCI-H226
NCI-H23 = system: NCI-H23
NCI-H460 = system: NCI-H460
NCI-H522 = system: NCI-H522
NCI/ADR-RES = system: NCI/ADR-RES
OVCAR-3 = system: OVCAR-3
OVCAR-4 = system: OVCAR-4
OVCAR-5 = system: OVCAR-5
OVCAR-8 = system: OVCAR-8
PC-3 = system: PC-3
RPMI-8226 = system: RPMI-8226
RXF 393 = system: RXF 393
SF-268 = system: SF-268
SF-295 = system: SF-295
SF-539 = system: SF-539
SK-MEL-28 = system: SK-MEL-28
SK-MEL-2 = system: SK-MEL-2
SK-MEL-5 = system: SK-MEL-5
SK-OV-3 = system: SK-OV-3
SN12C = system: SN12C
SNB-19 = system: SNB-19
SNB-75 = system: SNB-75
SW-620 = system: SW-620
T47D = system: T47D
TK-10 = system: TK-10
U-251 = system: U-251
UACC-257 = system: UACC-257
UACC-62 = system: UACC-62
UO-31 = system: UO-31
CCRF-CEM = system: CCRF-CEM
HL-60 = system: HL-60

SMILES: COc1cc2nc3n(c(=O)c2cc1OC)-c1ccc([N+](=O)[O-])cc1C3=O
- GI50 (786-0): 56.8 µM (inactive)
- GI50 (A498): 17.5 µM (inactive)
- GI50 (A549): 52.7 µM (inactive)
- GI50 (ACHN): 39.2 µM (inactive)
- GI50 (BT-549): > 100 µM (inactive)
- GI50 (CAKI-1): 5.06 µM (inactive)
- GI50 (COLO 205): > 100 µM (inactive)
- GI50 (DU-145): 34.6 µM (inactive)
- GI50 (EKVX): 36.9 µM (inactive)
- GI50 (HCC 2998): > 100 µM (inactive)
- GI50 (HCT-116): 34.8 µM (inactive)
- GI50 (HCT-15): 32.4 µM
- GI50 (HOP-62): > 100 µM (inactive)
- GI50 (HOP-92): > 100 µM (inactive)
- GI50 (HT-29): > 100 µM (inactive)
- GI50 (Hs-578T): > 100 µM (inactive)
- GI50 (IGROV-1): 26.1 µM (inactive)
- GI50 (K562): 31.5 µM (inactive)
- GI50 (KM12): 80.2 µM (inactive)
- GI50 (LOX IMVI): 38.7 µM (inactive)
- GI50 (M14): 52.1 µM (inactive)
- GI50 (MCF7): 11.9 µM (inactive)
- GI50 (MDA-MB-231): 46 µM (inactive)
- GI50 (MDA-MB-435): 19.4 µM (inactive)
- GI50 (MDA-N): 30.5 µM (inactive)
- GI50 (MOLT-4): 27.3 µM (inactive)
- GI50 (Malme-3M): 34.5 µM (inactive)
- GI50 (NCI-H226): 26.1 µM (inactive)
- GI50 (NCI-H23): 56.6 µM (inactive)
- GI50 (NCI-H460): 68.4 µM (inactive)
- GI50 (NCI-H522): 25.5 µM (inactive)
- GI50 (NCI/ADR-RES): 89.5 µM (inactive)
- GI50 (OVCAR-3): 22.6 µM (inactive)
- GI50 (OVCAR-4): 15 µM (inactive)
- GI50 (OVCAR-5): > 100 µM (inactive)
- GI50 (OVCAR-8): 57.9 µM (inactive)
- GI50 (PC-3): 41.5 µM (inactive)
- GI50 (RPMI-8226): 28.7 µM (inactive)
- GI50 (RXF 393): 20.3 µM (inactive)
- GI50 (SF-268): > 100 µM (inactive)
- GI50 (SF-295): 83.2 µM (inactive)
- GI50 (SF-539): > 100 µM (inactive)
- GI50 (SK-MEL-28): 3.15 µM (inactive)
- GI50 (SK-MEL-2): > 100 µM (inactive)
- GI50 (SK-MEL-5): 50.8 µM (inactive)
- GI50 (SK-OV-3): > 100 µM (inactive)
- GI50 (SN12C): 66.7 µM (inactive)
- GI50 (SNB-19): > 100 µM (inactive)
- GI50 (SNB-75): 85.1 µM (inactive)
- GI50 (SW-620): 11.3 µM (inactive)
- GI50 (T47D): 0.891 µM (active)
- GI50 (TK-10): 61.7 µM (inactive)
- GI50 (U-251): 46.7 µM (inactive)
- GI50 (UACC-257): 60.5 µM (inactive)
- GI50 (UACC-62): 30.5 µM (inactive)
- GI50 (UO-31): 11.8 µM (inactive)

SMILES: COC(=O)CC1C2(C)C3=C(C)C(c4ccoc4)CC3OC2C2OC(=O)C3(C)C=CC(=O)C1(C)C23 (centres undefined)
- GI50 (786-0): 0.869 µM (active)
- GI50 (A498): 1.94 µM (inactive)
- GI50 (A549): 2.83 µM (inactive)
- GI50 (ACHN): 1.2 µM (inactive)
- GI50 (BT-549): 0.9 µM (active)
- GI50 (CAKI-1): 0.841 µM (active)
- GI50 (CCRF-CEM): 0.317 µM (active)
- GI50 (COLO 205): 1.3 µM (inactive)
- GI50 (DU-145): 0.76 µM (active)
- GI50 (EKVX): 1.36 µM (inactive)
- GI50 (HCC 2998): 1.41 µM (inactive)
- GI50 (HCT-116): 0.889 µM (active)
- GI50 (HCT-15): 0.67 µM
- GI50 (HL-60): 0.372 µM (active)
- GI50 (HOP-62): 3.28 µM (inactive)
- GI50 (HOP-92): 1.82 µM (inactive)
- GI50 (HT-29): 0.839 µM (active)
- GI50 (Hs-578T): 3.5 µM (inactive)
- GI50 (IGROV-1): 0.953 µM (active)
- GI50 (K562): 0.474 µM (active)
- GI50 (KM12): 1.71 µM (inactive)
- GI50 (LOX IMVI): 0.986 µM (active)
- GI50 (M14): 1.32 µM (inactive)
- GI50 (MCF7): 0.578 µM (active)
- GI50 (MDA-MB-231): 1.22 µM (inactive)
- GI50 (MDA-MB-435): 0.656 µM (active)
- GI50 (MDA-N): 0.385 µM (active)
- GI50 (MOLT-4): 0.455 µM (active)
- GI50 (Malme-3M): 1.02 µM (active)
- GI50 (NCI-H226): 2.13 µM (inactive)
- GI50 (NCI-H23): 1.57 µM (inactive)
- GI50 (NCI-H460): 1.15 µM (inactive)
- GI50 (NCI-H522): 0.575 µM (active)
- GI50 (NCI/ADR-RES): 2.04 µM (inactive)
- GI50 (OVCAR-3): 1.35 µM (inactive)
- GI50 (OVCAR-4): 2.25 µM (inactive)
- GI50 (OVCAR-5): 2.3 µM (inactive)
- GI50 (OVCAR-8): 1.02 µM (active)
- GI50 (PC-3): 1.18 µM (inactive)
- GI50 (RPMI-8226): 0.34 µM (active)
- GI50 (RXF 393): 1.3 µM (inactive)
- GI50 (SF-268): 2.07 µM (inactive)
- GI50 (SF-295): 3.22 µM (inactive)
- GI50 (SF-539): 0.869 µM (active)
- GI50 (SK-MEL-28): 1.16 µM (inactive)
- GI50 (SK-MEL-2): 1.64 µM (inactive)
- GI50 (SK-MEL-5): 1.6 µM (inactive)
- GI50 (SK-OV-3): 4.11 µM (inactive)
- GI50 (SN12C): 0.859 µM (active)
- GI50 (SNB-19): 2.25 µM (inactive)
- GI50 (SNB-75): 3.01 µM (inactive)
- GI50 (SW-620): 1.33 µM (inactive)
- GI50 (T47D): 1.38 µM (inactive)
- GI50 (TK-10): 2.28 µM (inactive)
- GI50 (U-251): 1.48 µM (inactive)
- GI50 (UACC-257): 1.95 µM (inactive)
- GI50 (UACC-62): 1.46 µM (inactive)
- GI50 (UO-31): 1.19 µM (inactive)
